Experimental data reported in patent US8372831B2, “Isoxazoline linked pyrrolo[2,1-c][1,4]benzodiazepine hybrids as potential anticancer agents and the process for preparation thereof” (Council of Scientific & Industrial Research, priority 2008, dated 2013).

Tests used:
Format in all cases: cell-based, human
[1] = tested on: HOP-62; assay: NCI SRB cytotoxicity, HOP-62 (non-small cell lung)
Procedure: (§1) Biological Activity: The in vitro biological activity studies were carried out at the National Cancer Institute, Maryland, USA.
(§2) The C8-linked isoxazoline-PBD hybrids have been tested against sixty human tumour cell lines derived from nine cancer types (leukemia, non-small cell lung cancer, colon cancer, CNS cancer, melanoma, ovarian cancer, renal cancer, prostate cancer and breast cancer) as per NCI protocol. For each compound, dose response curves for individual cell lines have been measured at a minimum of five concentrations at 10 fold dilutions. A protocol of 48 hrs continuous drug exposure has been used, and a sulforhodamine B (SRB) protein assay was used to estimate cell viability or growth. The concentration for 50% cell growth inhibition (GI50), total cell growth inhibition (TGI, 0% growth) and 50% cell death (LC50, […]) compared with the control has been calculated (FIG. 2).
(§3) Compound 5b and 9b have been evaluated for in vitro cytotoxicity in sixty cell lines from nine human cancer types of lung (Hop-62, NCI-H226, NCI-H522), leukemia (K-562, SR), colon (HCT-116, HCT-15, HCC-2998), CNS(SF-539), melanoma (SK-MEL-5, UACC-62, M14), ovarian (IGROV1), renal (A498), prostate (PC3) breast (BT-549, MDA-MB-435, HS578T) origin. The results are expressed as percent of cell growth determined relative to that of untreated control cells (Table 1).

[2] = tested on: MALME-3M; assay: NCI SRB cytotoxicity, MALME-3M (melanoma); settings: 48 hrs exposure
Procedure: as §1, §2, §3

[3] = tested on: SNB-75; assay: NCI SRB cytotoxicity, SNB-75 (CNS); settings: 48 hrs exposure
Procedure: as §1, §2, §3

[4] = tested on: CAKI-1; assay: NCI SRB cytotoxicity, CAKI-1 (renal); settings: 48 hrs exposure
Procedure: as §1, §2, §3

[5] = tested on: OVCAR-4; assay: NCI SRB cytotoxicity, OVCAR-4 (ovarian); settings: 48 hrs exposure
Procedure: as §1, §2, §3

[6] = tested on: SW-620; assay: NCI SRB cytotoxicity, SW-620 (colon); settings: 48 hrs exposure
Procedure: as §1, §2, §3

[7] = tested on: Ovarian; assay: NCI SRB cytotoxicity, ovarian cancer panel; settings: average of six to eight different cancer cell lines; for Log10 LC50: 50% lethality
Procedure: as §1, §2, §3

[8] = tested on: ACHN; assay: NCI SRB cytotoxicity, ACHN (renal); settings: 48 hrs exposure
Procedure: as §1, §2, §3

[9] = tested on: Leukemia; assay: NCI SRB cytotoxicity, leukemia panel; settings: average of six to eight different cancer cell lines; for Log10 LC50: 50% lethality
Procedure: as §1, §2, §3

[10] = tested on: TK-10; assay: NCI SRB cytotoxicity, TK-10 (renal); settings: 48 hrs exposure
Procedure: as §1, §2, §3

[11] = tested on: HCC-2998; assay: NCI SRB cytotoxicity, HCC-2998 (colon)
Procedure: as §1, §2, §3

[12] = tested on: HCT-15; assay: NCI SRB cytotoxicity, HCT-15 (colon)
Procedure: as §1, §2, §3

[13] = tested on: LOX IMVI; assay: NCI SRB cytotoxicity, LOX IMVI (melanoma); settings: 48 hrs exposure
Procedure: as §1, §2, §3

[14] = tested on: MDA-MB-; assay: NCI SRB cytotoxicity, MDA-MB- (breast); settings: 48 hrs exposure
Procedure: as §1, §2, §3

[15] = tested on: UACC-62; assay: NCI SRB cytotoxicity, UACC-62 (melanoma)
Procedure: as §1, §2, §3

[16] = tested on: T-47D; assay: NCI SRB cytotoxicity, T-47D (breast); settings: 48 hrs exposure
Procedure: as §1, §2, §3

[17] = tested on: HT29; assay: NCI SRB cytotoxicity, HT29 (colon); settings: 48 hrs exposure
Procedure: as §1, §2, §3

[18] = tested on: Non small cell lung cancer; assay: NCI SRB cytotoxicity, non-small cell lung cancer panel; settings: average of six to eight different cancer cell lines; for Log10 LC50: 50% lethality
Procedure: as §1, §2, §3

[19] = tested on: SK-OV-3; assay: NCI SRB cytotoxicity, SK-OV-3 (ovarian); settings: 48 hrs exposure
Procedure: as §1, §2, §3

[20] = tested on: Prostate; assay: NCI SRB cytotoxicity, prostate cancer panel; settings: average of six to eight different cancer cell lines; for Log10 LC50: 50% lethality
Procedure: as §1, §2, §3

[21] = tested on: SNB-19; assay: NCI SRB cytotoxicity, SNB-19 (CNS); settings: 48 hrs exposure
Procedure: as §1, §2, §3

[22] = tested on: HOP-92; assay: NCI SRB cytotoxicity, HOP-92 (non-small cell lung); settings: HOP-92, Non-smallcell lung; 48 hrs exposure
Procedure: as §1, §2, §3

[23] = tested on: RPMI-8226; assay: NCI SRB cytotoxicity, RPMI-8226 (leukemia); settings: 48 hrs exposure
Procedure: as §1, §2, §3

[24] = tested on: NCI-H23; assay: NCI SRB cytotoxicity, NCI-H23 (non-small cell lung); settings: NCI-H23, Non-smallcell lung; 48 hrs exposure
Procedure: as §1, §2, §3

[25] = tested on: SF-539; assay: NCI SRB cytotoxicity, SF-539 (CNS)
Procedure: as §1, §2, §3

[26] = tested on: DU-145; assay: NCI SRB cytotoxicity, DU-145 (prostate); settings: 48 hrs exposure
Procedure: as §1, §2, §3

[27] = tested on: BT-549; assay: NCI SRB cytotoxicity, BT-549 (breast)
Procedure: as §1, §2, §3

[28] = tested on: CCRF-CEM; assay: NCI SRB cytotoxicity, CCRF-CEM (leukemia); settings: 48 hrs exposure
Procedure: as §1, §2, §3

[29] = tested on: HL-60(TB); assay: NCI SRB cytotoxicity, HL-60(TB) (leukemia); settings: 48 hrs exposure
Procedure: as §1, §2, §3

[30] = HOP-62, Non-smallcell lung, 48 hrs exposure
[31] = HCC-2998, Colon, 48 hrs exposure
[32] = UACC-62, Melanoma, 48 hrs exposure
[33] = BT-549, Breast, 48 hrs exposure

| SMILES | GI50 [1, 30] | GI50 [2] | GI50 [3] | GI50 [4] | GI50 [5] | GI50 [6] | Log10 LC50 [7] | Log10GI50 [7] | GI50 [8] | Log10 LC50 [9] | Log10GI50 [9] | GI50 [10] | GI50 [11, 31] | GI50 ([12]; HCT-15, Colon, 48 hrs exposure) | GI50 [13] | GI50 [14] | GI50 [15, 32] | GI50 [16] | GI50 [17] | Log10 LC50 [18] | also measured |
| --- | --- | --- | --- | --- | --- | --- | --- | --- | --- | --- | --- | --- | --- | --- | --- | --- | --- | --- | --- | --- | --- |
| COc1ccc(C2CC(c3ccc(OC)c(OC)c3OC)=NO2)cc1OCCCCOc1cc2c(cc1OC)C(=O)N1CCC[C@H]1C=N2 (stereo partly drawn) [Compound 9b, (11aS)-7-(methyloxy)-8-(4-[(2-(methyloxy)-5-3-[2,3,4-tri(methyloxy)phenyl]-4,5-dihydro-5-isoxazolylphenyl)oxy]butyloxy)-2,3,5,11a-tetrahydro-1H-benzo[e]pyrrolo[1,2-a][1,4]diazepin-5-one] | 1.68 µM | 2.88 µM | 1.71 µM | 3.09 µM | 2.07 µM | 1.55 µM | −4.48 mol/L | −5.61 mol/L | 2.41 µM | −4.37 mol/L | −5.83 mol/L | 3.51 µM | 1.58 µM | 2.27 µM | 1.47 µM | 1.15 µM | 1.52 µM | 1.31 µM | 2.75 µM | −4.73 mol/L | Log10GI50 [18]: −5.70 mol/L; GI50 [19]: 3.37 µM; Log10 LC50 [20]: −4.54 mol/L; Log10GI50 [20]: −5.92 mol/L; GI50 [21]: 1.96 µM; GI50 [22]: 2.47 µM; GI50 [23]: 1.43 µM; GI50 [24]: 1.83 µM; GI50 ([25]; SF-539, CNS, 48 hrs exposure): 1.8 µM; GI50 [26]: 2.48 µM; GI50 [27, 33]: 1.23 µM; GI50 [28]: 1.41 µM; GI50 [29]: 1.9 µM |
| COc1cc(C2=NOC(c3cc(OC)c(OC)c(OC)c3)C2)ccc1OCCCCOc1cc2c(cc1OC)C(=O)N1CCC[C@H]1C=N2 (stereo partly drawn) [Compound 5b, (11aS)-7-(methyloxy)-8-(4-[(2-(methyloxy)-4-5-[3,4,5-tri(methyloxy)phenyl]-4,5-dihydro-3-isoxazolylphenyl)oxy]butyloxy)-2,3,5,11a-tetrahydro-1H benzo[e]pyrrolo[1,2-a][1,4]diazepin-5-one] | 0.27 µM | 0.21 µM | 0.32 µM | 0.25 µM | 0.4 µM | 0.23 µM | −4.84 mol/L | −6.44 mol/L | 0.28 µM | −4.18 mol/L | −6.76 mol/L | 0.28 µM | 0.19 µM | 0.18 µM | 0.22 µM | 0.19 µM | 0.16 µM | 0.28 µM | 0.36 µM | −4.78 mol/L | GI50 ([1]; non-small cell lung cancer HOP-62): 0.27 µM; GI50 ([11]; colon cancer HCC-2998): 0.19 µM; GI50 ([12]; colon cancer HCT-15): 0.19 µM; GI50 ([15]; melanoma UACC-62): 0.16 µM; Log10GI50 [18]: −6.59 mol/L; GI50 [19]: 0.47 µM; Log10 LC50 [20]: −4.82 mol/L; Log10GI50 [20]: −6.49 mol/L; GI50 [21]: 0.34 µM; GI50 [22]: 0.31 µM; GI50 [23]: 0.24 µM; GI50 [24]: 0.27 µM; GI50 ([25]; CNS SF-539): 0.22 µM; GI50 ([25]; SF-539, CNS, 48 hrs exposure): 0.22 µM; GI50 [26]: 0.32 µM; GI50 [27, 33]: 0.09 µM; GI50 ([27]; breast BT-549): 0.09 µM; GI50 [28]: 0.16 µM; GI50 [29]: 0.18 µM |
